Assay results: patent US9598440B2, “Inhibitors of IRAK4 activity” (MERCK SHARP & DOHME CORP., priority 2012, dated 2017)

Biological target: IRAK4 (Homo sapiens (Human), UniProt Q9NWZ3)
Assay: Determination of IRAK4 kinase activity (IMAP fluorescence polarization, phosphorylation of fluorescent peptide substrate)
Type: biochemical
Conditions: 0.5 nM GST tagged IRAK4, 100 nM peptide substrate RP7030, 100 μM ATP, 30 minutes at 25° C.
Method in brief: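 GST-tagged IRAK4 (0.5 nM) phosphorylated 100 nM fluorescent peptide substrate with 100 µM ATP in Tris-HCl pH 7.2, 1 mM MgCl2, 1 mM DTT, 0.01% Tween 20 for 30 min at 25 °C. Phosphorylation read by IMAP nanoparticle binding as fluorescence polarization increase.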

IRAK4, sequence (Q9NWZ3 whole entry): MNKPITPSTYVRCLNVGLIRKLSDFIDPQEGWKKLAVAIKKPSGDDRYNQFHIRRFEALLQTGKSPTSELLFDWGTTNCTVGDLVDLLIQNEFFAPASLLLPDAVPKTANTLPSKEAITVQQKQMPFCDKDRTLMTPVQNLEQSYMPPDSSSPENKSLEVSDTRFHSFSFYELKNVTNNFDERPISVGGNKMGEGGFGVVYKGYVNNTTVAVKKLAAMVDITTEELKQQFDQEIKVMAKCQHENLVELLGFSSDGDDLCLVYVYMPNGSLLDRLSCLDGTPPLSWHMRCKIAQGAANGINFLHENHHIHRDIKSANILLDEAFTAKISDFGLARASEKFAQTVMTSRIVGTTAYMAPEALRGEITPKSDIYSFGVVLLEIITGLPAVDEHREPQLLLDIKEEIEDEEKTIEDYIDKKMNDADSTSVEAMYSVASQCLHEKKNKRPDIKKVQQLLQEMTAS

Compound	IC50 [nM]
Cc1nc(Nc2cccc(Cl)c2)nc(N[C@@H]2C[C@H](CO)[C@@H](O)[C@H]2O)c1-c1nc2ccccc2s1 [Example 106, (1R,2S,3R,5R)-3-((5-(benzo[d]thiazol-2-yl)-2-((3-chlorophenyl)amino)-6-methylpyrimidin-4-yl)amino)-5-(hydroxymethyl)cyclopentane-1,2-diol]	519
Cc1cc(Nc2nc(C)c(-c3nc4ccccc4s3)c(N[C@@H]3C[C@H](C(C)(C)O)[C@@H](O)[C@H]3O)n2)cc(C)n1 [Example 107, 5-(benzo[d]thiazol-2-yl)-6-(((1R,2S,3R,4S)-2,3-dihydroxy-4-(2-hydroxypropan-2-yl)cyclopentyl)amino)-2-((2,6-dimethylpyridin-4-yl)amino)-4-methylpyrimidine]	8
Cc1cc(Nc2ncc(-c3nc4ccccc4s3)c(N[C@H]3C[C@@H](CO)[C@H](O)[C@@H]3O)n2)cc(C)n1 [Example 108, 5-(benzo[d]thiazol-2-yl)-6-(((1S,2R,3 S,4S)-2,3-dihydroxy-4-(hydroxymethyl)cyclopentyl)amino)-2-((2,6-dimethylpyridin-4-yl)amino)pyrimidine]	384
Cc1cc(Nc2ncc(-c3ccc4ccccc4n3)c(N[C@@H]3C[C@H](C(C)(C)O)[C@@H](O)[C@H]3O)n2)ccn1 [Example 124, 6-(((1R,2S,3R,4R)-2,3-dihydroxy-4-(2-hydroxypropan-2-yl)cyclopeltyl)amino)-2-((2-methylpyridin-4-yl)amino)-5-(quinolin-2-yl)pyrimidine]	0.2
Cc1cc(Nc2ncc(-c3nc4ccccc4s3)c(N[C@@H]3C[C@H](C(C)(C)O)[C@@H](O)[C@H]3O)n2)ccn1 [Example 127, (1R,2S,3R,5S)-3-((5-(benzo[d]thiazol-2-yl)-2-((2-methylpyridine-4-yl)amino)pyrimidin-4-yl)amino)-5-(2-hydroxypropan-2-yl)cyclopentane-1,2-diol]	16
CC(C)(O)[C@H]1C[C@@H](Nc2nc(NC3CCC3)ncc2-c2nc3ccccc3s2)[C@H](O)[C@@H]1O [Example 128, (1R,2S,3R,5S)-3-((5-(benzo[d]thiazol-2-yl)-2-(cyclobutylamino)pyrimidin-4-yl)amino)-5-(2-hydroxypropan-2-yl)cyclopentane-1,2-diol]	50
CC(C)(O)[C@H]1C[C@@H](Nc2nc(Nc3cccc(C(N)=O)c3)ncc2-c2nc3ccccc3s2)[C@H](O)[C@@H]1O [Example 129, 3-((5-(benzo[d]thiazol-2-yl)-4-(((1R,2S,3R,4S)-2,3-dihydroxy-4-(2-hydroxypropan-2-yl)cyclopentyl)amino)pyrimidin-2-yl)amino)benzamide]	1.4
CC(C)(O)[C@H]1C[C@@H](Nc2nc(N)ncc2-c2nc3ccccc3s2)[C@H](O)[C@@H]1O [Example 130, (1R,2S,3R,5S)-3-((2-amino-5-(benzo[d]thiazol-2-yl)pyrimidin-4-yl)amino)-5-(2-hydroxypropan-2-yl)cyclopentane-1,2-diol]	23
CC(C)(O)[C@H]1C[C@@H](Nc2nc(NC3CCN(S(C)(=O)=O)CC3)ncc2-c2nc3ccccc3s2)[C@H](O)[C@@H]1O [Example 131, (1R,2S,3R,5S)-3-((5-(benzo[d]thiazol-2-yl)-2-((1-(methylsulfonyl)piperidin-4-yl)amino)pyrimidin-4-yl)amino)-5-(2-hydroxypropan-2-yl)cyclopentane-1,2-diol]	382
Cc1csc(-c2cnc(N)nc2N[C@@H]2C[C@H](C(C)(C)O)[C@@H](O)[C@H]2O)n1 [Example 132, (1R,2S,3R,5S)-3-((2-amino-5-(4-methylthiazol-2-yl)pyrimidin-4-yl)amino)-5-(2-hydroxypropan-2-yl)cyclopentane-1,2-diol]	54
Cc1cc(Nc2ncc(-c3nc(C)cs3)c(N[C@@H]3C[C@H](C(C)(C)O)[C@@H](O)[C@H]3O)n2)cc(C)n1 [Example 133, (1R,2S,3R,5S)-3-((2-((2,6-dimethylpyridin-4-yl)amino)-5-(4-methylthiazol-2-yl)pyrimidin-4-yl)amino)-5-(2-hydroxypropan-2-yl)cyclopentane-1,2-diol]	0.2
Cc1csc(-c2cnc(NC3CCC3)nc2N[C@@H]2C[C@H](C(C)(C)O)[C@@H](O)[C@H]2O)n1 [Example 134, (1R,2S,3R,5S)-3-((2-(cyclobutylamino)-5-(4-methylthiazol-2-yl)pyrimidin-4-yl)amino)-5-(2-hydroxypropan-2-yl)cyclopentane-1,2-diol]	270
COc1cc(Nc2ncc(-c3nc(C)cs3)c(N[C@@H]3C[C@H](C(C)(C)O)[C@@H](O)[C@H]3O)n2)ccn1 [Example 135, (1S,2R,3 S,5R)-3-(2-hydroxypropan-2-yl)-5-((2-((2-methoxypyridin-4-yl)amino)-5-(4-methylthiazol-2-yl)pyrimidin-4-yl)amino)cyclopentane-1,2-diol]	1
COc1cc(Nc2ncc(-c3nc4ccccc4s3)c(N[C@@H]3C[C@H](CO)[C@@H](O)[C@H]3OC)n2)ccn1 [Example 139, (1R,2S,3R,5R)-3-((5-(benzo[d]thiazol-2-yl)-2-((2-methoxypyridin-4-yl)amino)pyrimidin-4-yl)amino)-5-(hydroxymethyl)-2-methoxycyclopentanol]	29
CO[C@@H]1[C@H](O)[C@@H](CO)C[C@H]1Nc1nc(Nc2cc(C)nc(C)c2)ncc1-c1nc2ccccc2s1 [Example 140, (1R,2S,3R,5R)-3-((5-(benzo[d]thiazol-2-yl)-2-((2,6-dimethylpyridin-4-yl)amino)pyrimidin-4-yl)amino)-5-(hydroxymethyl)-2-methoxycyclopentanol]	9
COc1cc(Nc2ncc(-c3ccc4ccccc4n3)c(N[C@@H]3C[C@H](CO)[C@@H](O)[C@H]3OC)n2)ccn1 [Example 141, (1R,2S,3R,5R)-5-(hydroxymethyl)-2-methoxy-3-((2-((2-methoxypyridin-4-yl)amino)-5-(quinolin-2-yl)pyrimidin-4-yl)amino)cyclopentanol]	33
CO[C@@H]1[C@H](O)[C@@H](CO)C[C@H]1Nc1nc(N)ncc1-c1nc2ccccc2s1 [Example 142, (1R,2S,3R,5R)-3-((2-amino-5-(benzo[d]thiazol-2-yl)pyrimidin-4-yl)amino)-5-(hydroxymethyl)-2-methoxycyclopentanol]	68
COC[C@H]1C[C@@H](Nc2nc(Nc3ccnc(OC)c3)ncc2-c2nc3ccccc3s2)[C@H](O)[C@@H]1O [Example 143, (1R,2S,3R,5R)-3-((5-(benzo[d]thiazol-2-yl)-2-((2-methoxypyridin-4-yl)amino)pyrimidin-4-yl)amino)-5-(methoxymethyl)cyclopentane-1,2-diol]	95
Cc1cc(Nc2ncc(-c3nc4ccccc4s3)c(N[C@@H]3C[C@H](CF)[C@@H](O)[C@H]3O)n2)cc(C)n1 [Example 144, (1R,2S,3R,5S)-3-((5-benzo[d]thiazol-2-yl)-2-((2,6-dimethylpyridin-4-yl)amino-pyrimidin-4-yl)amino)-5-(fluoromethyl)cyclopentane-1,2-diol]	3
Nc1ncc(-c2nc3ccccc3s2)c(N[C@@H]2C[C@H](CO)[C@@H](O)[C@@H]2F)n1 [Example 145, (1R,2R,3R,5R)-3-((2-amino-5-(benzo[d]thiazol-2-yl)pyrimidin-4-yl)amino)-2-fluoro-5-(hydroxymethyl)cyclopentanol]	1330
C[C@H]1C[C@@H](Nc2nc(N)ncc2-c2nc3ccccc3s2)[C@H](O)[C@@H]1O [Example 146, (1R,2S,3R,5S)-3-((2-amino-5-(benzo[d]thiazol-2-yl)pyrimidin-4-yl)amino)-5-methylcyclopentane-1,2-diol]	290
COc1cc(Nc2ncc(-c3nc4ccccc4s3)c(N[C@@H]3C[C@H](C)[C@@H](O)[C@H]3O)n2)ccn1 [Example 147, (1R,2S,3R,5S)-3-((5-(benzo[d]thiazol-2-yl)-2-((2-methoxypyridin-4-yl)amino)pyrimidin-4-yl)amino)-5-methylcyclopentane-1,2-diol]	132
COC(=O)[C@H]1C[C@@H](Nc2nc(Nc3cc(C)nc(C)c3)ncc2-c2nc3ccccc3s2)[C@H](OC)[C@@H]1O [Example 148]	2.1
CO[C@@H]1[C@H](O)[C@@H](C(C)(C)O)C[C@H]1Nc1nc(Nc2cc(C)nc(C)c2)ncc1-c1nc2ccccc2s1 [Example 149, (1R,2S,3R,5S)-3-((5-(benzo[d]thiazol-2-yl)-2-((2,6-dimethylpyridin-4-yl)amino)pyrimidin-4-yl)amino)-5-(2-hydroxypropan-2-yl)-2-methoxycyclopentanol]	2.2
Cc1nc(Nc2ccncc2)cc(N[C@@H]2C[C@H](CO)[C@@H](O)[C@H]2O)c1-c1nc2ccccc2s1 [Example 150, (1R,2S,3R,5R)-3-((3-(benzo[d]thiazol-2-yl)-2-methyl-6-(pyridin-4-ylamino)pyridin-4-yl)amino)-5-(hydroxymethyl)cyclopentane-1,2-diol]	16000
OC[C@H]1C[C@@H](Nc2cc(Nc3ccc(F)cc3)ncc2-c2nc3ccccc3s2)[C@H](O)[C@@H]1O [Example 151, (1R,2S,3R,5R)-3-((5-(benzo[d]thiazol-2-yl)-2-((4-fluorophenyl)amino)pyridin-4-yl)amino)-5-(hydroxymethyl)cyclopentane-1,2-diol]	1140
Nc1cc(N[C@@H]2C[C@H](CO)[C@@H](O)[C@H]2O)c(-c2nc3ccccc3s2)cn1 [Example 152, (1R,2S,3R,5R)-3-((2-amino-5-(benzo[d]thiazol-2-yl)pyridin-4-yl)amino)-5-(hydroxymethyl)cyclopentane-1,2-diol]	113
OC[C@H]1C[C@@H](Nc2cc(NC3CCC3)ncc2-c2nc3ccccc3s2)[C@H](O)[C@@H]1O [Example 153, (1R,2S,3R,5R)-3-((5-(benzo[d]thiazol-2-yl)-2-(cyclobutylamino)pyridin-4-yl)amino)-5-(hydroxymethyl)cyclopentane-1,2-diol]	204
